Measurements published in patent US5126057A, “Disinfecting with N,N'-dihaloimidazolidin-4-ones” (Auburn Research Foundation, priority 1991, dated 1992).
Where two headings read alike, the source gives them in different places. Blank lines part the entries; values can stand above or below the molecule they belong to.

Key:
[1] = cited from earlier work
[2] = Formation of N-halogenated imidazolidin-4-ones in situ (loss of free chlorine, DPD/FAS); type: physicochemical; settings: for reaction with free chlorine: pH 7.0, 24°±1° C.
Description: An aqueous solution containing 50.0 milligrams (3.52×10^-4 moles) of 2,2,5,5-tetramethylimidazolidin-4-one synthesized as in example 2 in 50.0 milliliters of 0.05 molar sodium phosphate buffer (pH 7.0) was prepared. The buffer solution had been made halogen demand-free by chlorination with 3 milligrams per liter total chlorine from sodium hypochlorite followed by exposure to direct sunlight for two days until no titratable chlorine remained. A halogen demand-free solution of free chlorine buffered to pH 7.0 was prepared by bubbling chlorine gas into a flask containing the demand-free buffered water. Then 19 milliliters of the solution containing 1.31 grams per liter of free chlorine (7.02×10^-4 moles of positive halogen) was added to the solution containing the 2,2,5,5-tetramethylimidazolidin-4-one at ambient temperature (24°±1° C.) while stirring.
The reaction rate for formation of 1,3-dichloro-2,2,5,5-tetramethylimidazolidin-4-one and/or 1-chloro-2,2,5,5-tetramethylimidazolidin-4-one in situ was then followed kinetically by observing the loss of free chlorine concentration from the reaction mixture as a function of time. The concentration of free chlorine was monitored by withdrawing aliquots from the mixture periodically and titrating them by the DPD/FAS (N,N-diethyl-p-phenylenediamine/ferrous ammonium sulfate) method as described in "Standard Methods for the Examination of Water and Wastewater, 16th edition, American Public Health Association, Washington, D. C., 1985, pp. 306-309. The moles of free chlorine present in the reaction mixture declined from 7.02×10^-4 at the time of mixing to 4.45×10^-5 after only 48 seconds representing 94% reaction. Then further declination of free chlorine occurred to 3.63×10^-5 moles after 2.87 minutes, 3.48×10^-5 moles after 6.07 minutes, and 3.32×10^-5 moles after 114.6 minutes. Thus after 114.6 minutes 95% of the reaction had occurred. At this time 1.76×10^-5 additional moles of 2,2,5,5-tetramethylimidazolidin-4-one was added, and the concentration of free chlorine declined to zero by 140 minutes total elapsed time.

[3] = Stability of unhalogenated 2,2,5,5-tetramethylimidazolidin-4-one in water exposed to direct sunlight; type: physicochemical
Description: A solution containing 142 milligrams (1.00×10^-3 moles) of 2,2,5,5-tetramethylimidazolidin-4-one (Compound 6) in 1.0 liter of demand-free water buffered to pH 7.0 was prepared. 100 milliliter samples (1.00×10^-4 moles of Compound 6) of this solution were placed in each of five 100 milliliter volumetric flasks. The flasks were sealed with ground glass stoppers and placed in direct sunlight on the roof of the chemistry building at Auburn University during the period Jul. 6, 1989 to Aug. 2, 1989. No effort was made to control the temperature in this experiment; it was typically 33° C. during this period. […]
After allowing the reaction of Compound 6 with free chlorine to form a mixture of 1,3-dichloro-2,2,5,5-tetramethylimidazolidin-4-one (Compound 1) and 1-chloro-2,2,5,5-tetramethylimidazolidin-4-one (Compound 3) to proceed with stirring over a period of 1 hour, aliquots were analyzed for total and free chlorine using the DPD-FAS procedure mentioned in example 8. The combined chlorine concentration was assumed to be the difference between the determined total and free chlorine concentrations, and to represent the amounts of compounds 1 and 3 forming during the reaction.

Structure (SMILES): CC1(C)COC(=O)N1Cl [3-chloro-4,4-dimethyl-2-oxazolidinone]
hydrolysis equilibrium constant ([1]; reported by Williams, Elder and Worley, 1988): 2.3×10^-9

reaction with free chlorine ([2]; 48 seconds): 94%
reaction with free chlorine ([2]; 114.6 minutes): 95%
time for in situ formation of halogenated imidazolidin-4-ones ([2]; free chlorine added to pH 7.0 demand-free water): less than 1 minute
Structure (SMILES): CC1(C)NC(=O)C(C)(C)N1 [2,2,5,5-tetramethylimidazolidin-4-one]

variation of combined chlorine concentration ([3]; 4 weeks direct sunlight, DFW pH 7.0, typically 33° C., then reacted with free chlorine): ≤ 6%
time for which stable in direct sunlight ([3]; DFW, pH 7.0, direct sunlight): at least 4 weeks
Structure (SMILES): CC1(C)NC(=O)C(C)(C)N1 [Compound 6, 2,2,5,5-tetramethylimidazolidin-4-one]

Structure (SMILES): O=c1n(Cl)c(=O)n(Cl)c(=O)n1Cl [trichloroisocyanuric acid]
hydrolysis equilibrium constant ([1]; reported by G. D. Nelson, Kirk-Othmer 1979): 1.6×10^-4
